Measurements from patent publication US6987004B1, “Genes integrating signal transduction pathways” (Massachusetts Institute of Technology, priority 1998, dated 2006).

T1: cAMP-GEFI (Rattus norvegicus, UniProt Q9Z1C8)
T1 sequence (Q9Z1C8 43-926 limits assumed): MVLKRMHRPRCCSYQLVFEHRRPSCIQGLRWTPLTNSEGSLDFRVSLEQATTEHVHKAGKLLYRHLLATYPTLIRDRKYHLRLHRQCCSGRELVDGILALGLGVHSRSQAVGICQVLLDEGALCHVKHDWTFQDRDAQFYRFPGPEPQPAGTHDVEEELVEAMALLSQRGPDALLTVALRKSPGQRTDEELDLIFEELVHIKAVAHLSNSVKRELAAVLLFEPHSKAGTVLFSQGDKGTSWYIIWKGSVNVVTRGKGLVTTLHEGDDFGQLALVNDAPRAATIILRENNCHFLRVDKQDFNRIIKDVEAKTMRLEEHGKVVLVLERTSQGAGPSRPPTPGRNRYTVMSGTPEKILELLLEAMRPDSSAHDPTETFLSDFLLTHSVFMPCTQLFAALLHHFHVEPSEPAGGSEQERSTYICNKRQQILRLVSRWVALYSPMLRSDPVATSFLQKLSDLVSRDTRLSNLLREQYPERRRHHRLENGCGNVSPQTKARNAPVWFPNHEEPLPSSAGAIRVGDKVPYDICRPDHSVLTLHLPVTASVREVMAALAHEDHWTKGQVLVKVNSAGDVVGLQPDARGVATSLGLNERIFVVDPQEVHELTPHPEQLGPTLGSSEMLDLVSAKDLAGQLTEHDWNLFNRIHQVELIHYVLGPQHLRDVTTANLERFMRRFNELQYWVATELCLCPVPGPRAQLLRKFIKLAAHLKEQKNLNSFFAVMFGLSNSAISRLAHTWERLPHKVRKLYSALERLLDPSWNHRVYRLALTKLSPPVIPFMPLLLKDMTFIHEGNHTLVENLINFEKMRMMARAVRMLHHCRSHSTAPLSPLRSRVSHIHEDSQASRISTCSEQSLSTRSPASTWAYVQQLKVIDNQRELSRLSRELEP

T2: CalDAG-GEFI (Mus musculus, UniProt Q9QUG9)
T2 construct: expressed in transfected cells; host or cells: 293T cells
T2 sequence (Q9QUG9 with tags, fused parts or gaps M73V/I83V/Q99P/R233K/C339S/E542D/S598T limits assumed): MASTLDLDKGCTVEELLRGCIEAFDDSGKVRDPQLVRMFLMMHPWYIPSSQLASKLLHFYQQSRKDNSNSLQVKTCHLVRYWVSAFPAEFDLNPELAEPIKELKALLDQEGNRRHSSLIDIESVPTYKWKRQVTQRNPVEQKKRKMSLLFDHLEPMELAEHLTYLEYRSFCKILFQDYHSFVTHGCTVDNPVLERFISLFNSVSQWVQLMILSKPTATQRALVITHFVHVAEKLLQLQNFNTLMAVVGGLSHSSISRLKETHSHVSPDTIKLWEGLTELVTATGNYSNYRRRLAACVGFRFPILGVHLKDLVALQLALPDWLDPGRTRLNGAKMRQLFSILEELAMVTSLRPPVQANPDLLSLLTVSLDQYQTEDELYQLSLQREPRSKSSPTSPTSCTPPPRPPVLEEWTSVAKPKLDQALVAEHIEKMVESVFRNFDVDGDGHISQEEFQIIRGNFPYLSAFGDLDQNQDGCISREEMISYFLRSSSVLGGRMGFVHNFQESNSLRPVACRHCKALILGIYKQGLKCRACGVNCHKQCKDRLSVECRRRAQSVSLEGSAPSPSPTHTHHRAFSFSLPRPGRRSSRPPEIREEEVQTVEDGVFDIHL

T3: CalDAG-GEFII (Rattus norvegicus, UniProt Q9R1K8)
T3 construct: expressed in transfected cells; host or cells: 293T cells
T3 sequence (Q9R1K8 1-795): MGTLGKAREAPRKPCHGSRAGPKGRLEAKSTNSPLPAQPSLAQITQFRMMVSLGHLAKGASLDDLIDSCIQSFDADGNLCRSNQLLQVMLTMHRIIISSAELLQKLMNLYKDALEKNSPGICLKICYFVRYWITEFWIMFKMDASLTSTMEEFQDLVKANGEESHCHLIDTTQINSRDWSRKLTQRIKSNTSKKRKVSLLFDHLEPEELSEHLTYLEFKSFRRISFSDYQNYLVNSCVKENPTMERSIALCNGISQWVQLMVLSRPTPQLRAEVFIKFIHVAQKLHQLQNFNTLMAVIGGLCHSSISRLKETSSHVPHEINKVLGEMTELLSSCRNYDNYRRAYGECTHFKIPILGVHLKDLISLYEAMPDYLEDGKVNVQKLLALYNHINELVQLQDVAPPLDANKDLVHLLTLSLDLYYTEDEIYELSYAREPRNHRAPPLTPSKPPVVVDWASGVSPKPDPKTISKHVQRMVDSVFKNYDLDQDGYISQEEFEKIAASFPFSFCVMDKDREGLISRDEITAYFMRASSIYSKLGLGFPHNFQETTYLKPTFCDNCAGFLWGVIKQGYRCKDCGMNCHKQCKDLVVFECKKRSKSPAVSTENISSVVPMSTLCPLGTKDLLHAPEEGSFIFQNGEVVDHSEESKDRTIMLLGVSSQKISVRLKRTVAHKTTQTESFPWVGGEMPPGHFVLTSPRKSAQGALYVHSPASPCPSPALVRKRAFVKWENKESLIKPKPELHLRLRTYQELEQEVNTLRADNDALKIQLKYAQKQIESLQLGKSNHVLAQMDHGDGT


Columns and labels:
cAMP-GEFI = target: T1, cAMP-GEFI; assay: cAMP agarose affinity bead binding assay; details: excess amounts of competitor; in vitro translated cAMP-GEFI
CalDAG-GEFI = target: T2, CalDAG-GEFI; assay: Guanine nucleotide exchange activity in intact 293T cells cotransfected with mouse CalDAG-GEFI and GST-tagged Rap1A; format: cell-based; details: 10 μM A23187 or 1 μM TPA for 3 min
Description: (§1) To determine the small G protein target of CalDAG-GEFI, guanine nucleotide exchange activity in vivo was analyzed using intact 293T cells cotransfected with a eukaryotic expression construct of mouse CalDAG-GEFI and GST-tagged Ras family proteins. Full-length mouse CalDAG-GEFI cDNA inserted into a pCMV-SPORT expression vector with a carboxy-terminal FLAG epitope was used for transfection. A PCR-amplified fragment of rat CalDAG-GEFII was subcloned into a pCAGGS expression vector with the addition of His6-tag at its amino-terminus, resulting in pCAGGS-His-CalDAGII. pEBG-Krev1 that expresses Rap1A was used as a fusion protein to glutathione S-transferase (GST) in mammalian cells, as described in Gotoh et al., 15 Mol. Cell Biol. 6746–53 (1995), pEBG-R-Ras, other vectors for Ras-family proteins obtained by inserting PCR-amplified cDNAs into pEBG expression vector, pCAGGS-C3G and pCAGGS-MSos1, and pCEV-H-RasVl2.
(§2) To determine the effect of CalDAG-GEFI on the Erk/MAP kinase cascade, Elk1 activation was measured in 293T cells transfected with CalDAG-GEFI or constitutively active H-Ras (RasV12), or both. […] 293T cells were transfected with pFR-Luc and pFA-Elk1 with various expression vectors, and light output was detected and analyzed by the use of LAS1000 film.

CalDAG-GEFII = target: T3, CalDAG-GEFII; assay: Guanine nucleotide exchange activity in 293T cells transfected with CalDAG-GEFII (H-Ras activation); format: cell-based
Description: as §1
as §2, with “film. […]” for “film.”

[1] = target: Rap1A as a fusion protein to glutathione S-transferase (pEBG-Krev1) (UniProt P62834)
Rap1A as a fusion protein to glutathione S-transferase (pEBG-Krev1), sequence (P62834 whole entry, the tested form may be a part): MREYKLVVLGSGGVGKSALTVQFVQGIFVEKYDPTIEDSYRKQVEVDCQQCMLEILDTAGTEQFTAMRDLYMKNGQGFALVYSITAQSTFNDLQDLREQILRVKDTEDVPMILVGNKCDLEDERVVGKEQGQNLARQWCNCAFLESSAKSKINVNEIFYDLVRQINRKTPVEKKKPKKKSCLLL

Elk1 = Elk1 activation in 293T cells (PathDetect Elk1 transreporting system); format: cell-based; details: for Activation of Elk1 by the GEF itself: 293T cells transfected with the GEF
Description: To determine the effect of CalDAG-GEFI on the Erk/MAP kinase cascade, Elk1 activation was measured in 293T cells transfected with CalDAG-GEFI or constitutively active H-Ras (RasV12), or both. 293T cells were transfected by SuperFect (Qiagen) as described in Gotoh, supra, with expression vectors for GST-tagged Ras family proteins and with those for various GEFs. Cells were labeled 24 hours after transfection with ^32Pi for 2 hr. In some experiments, cells were stimulated with either 10 μM A23187 or 1 μM phorbol-12-myristate-13-acetate (TPA) for 3 min. GST-tagged Ras family proteins were collected from cell lysates with glutathione Sepharose. Guanine nucleotides bound to Ras family proteins were separated by thin layer chromatography (TLC). Activation of Elk1 was examined by the PathDetect Elk1 transreporting system (Stratagene). 293T cells were transfected with pFR-Luc and pFA-Elk1 with various expression vectors, and light output was detected and analyzed by the use of LAS1000 film.

| Molecule | Effect on CalDAG-GEFI-induced increase in GTP-bound Rap1A (CalDAG-GEFI) | Effect on CalDAG-GEFII H-Ras activation (CalDAG-GEFII) | Activation of Elk1 by the GEF itself (Elk1) | other results |
| --- | --- | --- | --- | --- |
| Nc1ncnc2c1nc(Br)n2[C@@H]1O[C@@H]2COP(=O)(O)O[C@H]2[C@H]1O [8-Br-cAMP] |  |  |  | Competition of radiolabeled cAMP-GEFI binding to cAMP agarose beads (cAMP-GEFI): competed |
| CNc1ccc2oc(C[C@H]3O[C@@]4(CC[C@H]3C)O[C@H]([C@H](C)C(=O)c3ccc[nH]3)[C@H](C)C[C@H]4C)nc2c1C(=O)O [A23187] | augmented | enhanced |  |  |
| cAMP-GEFI (wild type) |  |  |  | time-course of the activation of Rap1A by forskolin/IBMX in cAMP-GEFI transfectants [1]: the activation began within 10 sec, reached a maximum at 5 min, and continued for at least 60 min |
| CCCCCCCCCCCCCC(=O)O[C@@H]1[C@@H](C)[C@@]2(O)[C@@H](C=C(CO)C[C@]3(O)C(=O)C(C)=C[C@@H]23)[C@@H]2C(C)(C)[C@]12OC(C)=O [TPA, phorbol-12-myristate-13-acetate] | augmented | enhanced |  |  |
| CalDAG-GEFI: guanine nucleotide exchange factor with Ca2+ and DAG binding domains, substrate Rap1A; mouse cDNA expressed in 293T cells (protein) MASTLDLDKGCTVEELLRGCIEAFDDSGKVRDPQLVRMFLMMHPWYIPSSQLASKLLHFYQQSRKDNSNSLQVKTCHLVRYWVSAFPAEFDLNPELAEPIKELKALLDQEGNRRHSSLIDIESVPTYKWKRQVTQRNPVEQKKRKMSLLFDHLEPMELAEHLTYLEYRSFCKILFQDYHSFVTHGCTVDNPVLERFISLFNSVSQWVQLMILSKPTATQRALVITHFVHVAEKLLQLQNFNTLMAVVGGLSHSSISRLKETHSHVSPDTIKLWEGLTELVTATGNYSNYRRRLAACVGFRFPILGVHLKDLVALQLALPDWLDPGRTRLNGAKMRQLFSILEELAMVTSLRPPVQANPDLLSLLTVSLDQYQTEDELYQLSLQREPRSKSSPTSPTSCTPPPRPPVLEEWTSVAKPKLDQALVAEHIEKMVESVFRNFDVDGDGHISQEEFQIIRGNFPYLSAFGDLDQNQDGCISREEMISYFLRSSSVLGGRMGFVHNFQESNSLRPVACRHCKALILGIYKQGLKCRACGVNCHKQCKDRLSVECRRRAQSVSLEGSAPSPSPTHTHHRAFSFSLPRPGRRSSRPPEIREEEVQTVEDGVFDIHL |  |  | did not itself activate Elk1 | Reduction of RasV12 activation of Elk1 (Elk1; 293T cells cotransfected with constitutively active H-Ras (RasV12)): approximately 4 fold |
| CalDAG-GEFII: guanine nucleotide exchange factor activating H-Ras and R-Ras; rat cDNA expressed in 293T cells (protein, left off: small tags and cut ends, rat cDNA expressed in 293T cells) MGTLGKAREAPRKPCHGSRAGPKGRLEAKSTNSPLPAQPSLAQITQFRMMVSLGHLAKGASLDDLIDSCIQSFDADGNLCRSNQLLQVMLTMHRIIISSAELLQKLMNLYKDALEKNSPGICLKICYFVRYWITEFWIMFKMDASLTSTMEEFQDLVKANGEESHCHLIDTTQINSRDWSRKLTQRIKSNTSKKRKVSLLFDHLEPEELSEHLTYLEFKSFRRISFSDYQNYLVNSCVKENPTMERSIALCNGISQWVQLMVLSRPTPQLRAEVFIKFIHVAQKLHQLQNFNTLMAVIGGLCHSSISRLKETSSHVPHEINKVLGEMTELLSSCRNYDNYRRAYGECTHFKIPILGVHLKDLISLYEAMPDYLEDGKVNVQKLLALYNHINELVQLQDVAPPLDANKDLVHLLTLSLDLYYTEDEIYELSYAREPRNHRAPPLTPSKPPVVVDWASGVSPKPDPKTISKHVQRMVDSVFKNYDLDQDGYISQEEFEKIAASFPFSFCVMDKDREGLISRDEITAYFMRASSIYSKLGLGFPHNFQETTYLKPTFCDNCAGFLWGVIKQGYRCKDCGMNCHKQCKDLVVFECKKRSKSPAVSTENISSVVPMSTLCPLGTKDLLHAPEEGSFIFQNGEVVDHSEESKDRTIMLLGVSSQKISVRLKRTVAHKTTQTESFPWVGGEMPPGHFVLTSPRKSAQGALYVHSPASPCPSPALVRKRAFVKWENKESLIKPKPELHLRLRTYQELEQEVNTLRADNDALKIQLKYAQKQIESLQLGKSNHVLAQMDHGDGT |  |  | increased the transcriptional activity of Elk1 |  |
